In BindingDB's records for doi:10.1021/jm00065a013 (Washington University, 1993):
*1 amine or outer side, *2 acyl side, *3 side chain or, on linkers, in order; H or OH if unused. Where a SMILES comes first, the peptide text is derived from it. Bridges are numbered along the chain shown (N, C = ends). Roman numbers before positions name the chains, in order. [ ]: non-standard residue; d: D form. Pro(4R-SH) = O=C([C@@H]1C[C@@H](S[*:3])CN1[*:1])[*:2]; Pro(4S-SH) = O=C([C@@H]1C[C@H](S[*:3])CN1[*:1])[*:2]; hCys = N[C@@H](CCS)C(=O)O; Sar = CNCC(=O)O

target: Type-2 angiotensin II receptor (Oryctolagus cuniculus); assay: In vitro binding affinity at angiotensin II (type 2) receptor in rabbit uterus.

| IC50 | Structure (SMILES) |
| --- | --- |
| 80 nM | CNCC(=O)N[C@@H](CCCNC(=N)N)C(=O)N[C@H]1CCSSCC[C@@H](C(=O)N[C@@H](Cc2cnc[nH]2)C(=O)N2CCC[C@H]2C(=O)N[C@@H](Cc2ccccc2)C(=O)O)NC(=O)[C@H](Cc2ccc(O)cc2)NC1=O [2-({1-[2-{[11-[5-Guanidino-2-(2-methylamino-acetylamino)-pentanoylamino]-8-(4-hydroxy-benzyl)-7,10-dioxo-1,2-dithia-6,9-diaza-cyclotridecane-5-carbonyl]-amino}-3-(3H-imidazol-4-yl)-propionyl]-pyrrolidine-2-carbonyl}-amino)-3-phenyl-propionic acid] (H-[Sar]R[hCys]Y[hCys]HPF-OH; disulfide 3-5) |
| 65 nM | CNCC(=O)N[C@@H](CCCN=C(N)N)C(=O)N[C@H]1CSSC[C@@H](C(=O)N[C@@H](Cc2c[nH]cn2)C(=O)N2CCC[C@H]2C(=O)N[C@@H](Cc2ccccc2)C(=O)O)NC(=O)[C@H](Cc2ccc(O)cc2)NC(=O)[C@@H](NC(=O)[C@H](CCCN=C(N)N)NC(=O)CNC)CSSC[C@@H](C(=O)N[C@@H](Cc2c[nH]cn2)C(=O)N2CCC[C@H]2C(=O)N[C@@H](Cc2ccccc2)C(=O)O)NC(=O)[C@H](Cc2ccc(O)cc2)NC1=O [bis-c[Sar1-Arg2-Cys3-Tyr4-Cys5-His6-Pro7-Phe8](antiparallel)] (I: H-[Sar]RCYCHPF-OH / II: H-[Sar]RCYCHPF-OH; disulfide I:3-II:5, I:5-II:3) |
| 9.1 nM | CNCC(=O)N[C@@H](CCCNC(=N)N)C(=O)N[C@H]1CCSS[C@H]2C[C@@H](C(=O)N[C@@H](Cc3cnc[nH]3)C(=O)N3CCC[C@H]3C(=O)N[C@@H](Cc3ccccc3)C(=O)O)N(C2)C(=O)[C@H](Cc2ccc(O)cc2)NC1=O [c[Sar1-Arg2-Hcy3-Tyr4-MPc5-His6-Pro7-Phe8]] (H-[Sar]R[hCys]Y[Pro(4S-SH)]HPF-OH; disulfide 3-5) |
| 0.82 nM | CNCC(=O)N[C@@H](CCCNC(=N)N)C(=O)N[C@H]1CSS[C@@H]2C[C@@H](C(=O)N[C@@H](Cc3cnc[nH]3)C(=O)N3CCC[C@H]3C(=O)N[C@@H](Cc3ccccc3)C(=O)O)N(C2)C(=O)[C@H](Cc2ccc(O)cc2)NC1=O [c[Sar1-Arg2-Cys3-Tyr4-MPt5-His6-Pro7-Phe8]] (H-[Sar]RCY[Pro(4R-SH)]HPF-OH; disulfide 3-5) |
| 86 nM | CNCC(=O)N[C@@H](CCCN=C(N)N)C(=O)N[C@H]1CC(=O)NCCCC[C@@H](C(=O)N[C@@H](Cc2c[nH]cn2)C(=O)N2CCC[C@H]2C(=O)N[C@@H](Cc2ccccc2)C(=O)O)NC(=O)[C@H](Cc2ccc(O)cc2)NC1=O [c[Sar1-Arg2-Asp3-Tyr4-Lys5-His6-Pro7-Phe8]] (H-[Sar]RDYKHPF-OH; lactam 3-5) |
| 12 nM | CNCC(=O)N[C@@H](CCCNC(=N)N)C(=O)N1C[C@@H]2C[C@H]1C(=O)N[C@@H](Cc1ccc(O)cc1)C(=O)N[C@H](C(=O)N[C@@H](Cc1cnc[nH]1)C(=O)N1CCC[C@H]1C(=O)N[C@@H](Cc1ccccc1)C(=O)O)CSS2 [c[Sar1-Arg2-MPc3-Tyr4-Cys5-His6-Pro7-Phe8]] (H-[Sar]R[Pro(4S-SH)]YCHPF-OH; disulfide 3-5) |
| 23 nM | CNCC(=O)N[C@@H](CCCNC(=N)N)C(=O)N1C[C@@H]2C[C@H]1C(=O)N[C@@H](Cc1ccc(O)cc1)C(=O)N[C@H](C(=O)N[C@@H](Cc1cnc[nH]1)C(=O)N1CCC[C@H]1C(=O)N[C@@H](Cc1ccccc1)C(=O)O)CSSC[C@H](C(=O)N[C@H](Cc1cnc[nH]1)C(=O)N1CCC[C@@H]1C(=O)N[C@H](Cc1ccccc1)C(=O)O)NC(=O)[C@@H](Cc1ccc(O)cc1)NC(=O)[C@H]1C[C@H](CN1C(=O)[C@@H](CCCNC(=N)N)NC(=O)CNC)SS2 [bis c[Sar1-Arg2-MPc3-Tyr4-Cys5-His6-Pro7-Phe8]parallel] |
| 25 nM | CNCC(=O)N[C@@H](CCCNC(=N)N)C(=O)N1C[C@@H]2C[C@H]1C(=O)N[C@@H](Cc1ccc(O)cc1)C(=O)N[C@H](C(=O)N[C@@H](Cc1cnc[nH]1)C(=O)N1CCC[C@H]1C(=O)N[C@@H](Cc1ccccc1)C(=O)O)CSS[C@H]1C[C@@H](C(=O)N[C@@H](Cc3ccc(O)cc3)C(=O)N[C@H](C(=O)N[C@@H](Cc3cnc[nH]3)C(=O)N3CCC[C@H]3C(=O)N[C@@H](Cc3ccccc3)C(=O)O)CSS2)N(C(=O)[C@H](CCCNC(=N)N)NC(=O)CNC)C1 [bis c[Sar1-Arg2-MPc3-Tyr4-Cys5-His6-Pro7-Phe8]antiparallel] (I: H-[Sar]R[Pro(4S-SH)]YCHPF-OH / II: H-[Sar]R[Pro(4S-SH)]YCHPF-OH; disulfide I:3-II:5, I:5-II:3) |
